Source: US8431585B2, “Use of inhibitors of the EGFR-mediated signal transduction for the treatment of benign prostatic hyperplasia (BPH)/prostatic hypertrophy” (Boehringer Ingelheim Pharma GmbH & Co. KG, priority 2002, dated 2013)
Marks after values point to notes of the source that are not given here.

Test system: prostate
Assay: Prostate-reducing activity: prostate weight of male rats after 14-15 days of once-daily oral treatment with an EGF-R-TK inhibitor
Type: in vivo
Experimental: The active substance is administered once a day as a suspension through an oesophageal tube. After the test period has ended the animals are killed, their prostates are removed and weighed.

[1] = 10 mg/kg once a day by oesophageal tube, length of treatment 14 days
[2] = 30 mg/kg once a day by oesophageal tube, length of treatment 14 days
[3] = 100 mg/kg once a day by oesophageal tube, length of treatment 14 days
[4] = 10 mg/kg once a day by oesophageal tube, length of treatment 15 days
[5] = 30 mg/kg once a day by oesophageal tube, length of treatment 15 days
[6] = 100 mg/kg once a day by oesophageal tube, length of treatment 15 days

## CN(CC=CC(=O)Nc1cc2c(Nc3ccc(F)c(Cl)c3)ncnc2cc1OC1CCCC1)C1CC1 [compound b, 4-[(3-chloro-4-fluorophenyl)amino]-6-{[4-(N-cyclopropyl-N-methyl-amino)-1-oxo-2-buten-1-yl]amino}-7-cyclopentyloxy-quinazoline]
[1]
  average absolute weight (prostate): 0.3983* g
  average relative weight [% of body weight] (prostate): 0.1622* % of body weight
  average relative weight [% of the brain] (prostate): 20.23* % of the brain
[2]
  average absolute weight (prostate): 0.3989 g
  average relative weight [% of body weight] (prostate): 0.1697 % of body weight
  average relative weight [% of the brain] (prostate): 20.71* % of the brain
[3]
  average absolute weight (prostate): 0.1848* g
  average relative weight [% of body weight] (prostate): 0.1191* % of body weight
  average relative weight [% of the brain] (prostate): 10.13* % of the brain

## CN(C)CC=CC(=O)Nc1cc2c(Nc3ccc(F)c(Cl)c3)ncnc2cc1OC[C@@H]1CCCO1 [compound c, 4-[(3-chloro-4-fluorophenyl)amino]-6-{[4-(N,N-dimethylamino)-1-oxo-2-buten-1-yl]amino}-7-[(S)-(tetrahydrofuran-2-yl)methoxy]-quinazoline]
[4]
  average absolute weight (prostate): 0.3854* g
  average relative weight [% of body weight] (prostate): 0.1681 % of body weight
  average relative weight [% of the brain] (prostate): 19.67* % of the brain
[5]
  average absolute weight (prostate): 0.2242* g
  average relative weight [% of body weight] (prostate): 0.1117* % of body weight
  average relative weight [% of the brain] (prostate): 11.50* % of the brain
[6]
  average absolute weight (prostate): 0.1463* g
  average relative weight [% of body weight] (prostate): 0.0892* % of body weight
  average relative weight [% of the brain] (prostate): 7.63* % of the brain
